Assay results: patent US5206223A, “Method for inhibiting heparanase activity” (Yeda Research and Development Co. Ltd., priority 1986, dated 1993)

How the values were obtained:
DTH reaction = test: Adoptively transferred DTH to OX: ear swelling and 51Cr I-LNC migration to the ear; type: in vivo, mice; conditions: for DTH ear swelling (FIG. 6 left): I-LNC transferred intravenously, 24 h
Description: I-LNC were obtained from OX sensitized mice (groups A-C) and naive LNC from unsensitized mice (group D). The LNC were transferred intravenously to naive recipients that were treated (groups B-C) or untreated (groups A,D) with heparin (5 μg or 20 μg) injected 18 h and 1 h prior to cell transfer and 20 h after cell transfer. DTH ear swelling was elicited by OX at the time of cell transfer and measured 24 h later.
Right: Heparin inhibits cell migration to DTH challenge site. The experiment was done as described in FIG. 6 (left), except that I-LNC were radiolabeled with ^51 Cr prior to cell transfer into naive recipient mice. The accumulation of I-LNC in the OX challenged ears is indicated as the ^51 Cr (cpm/ear).
Mice were sensitized to 4-ethoxymethylene-2-phenyl oxazolone (OX) by painting their skins twice at 5 day intervals with about 0.1 ml of 3% OX in a vehicle of 4:1 acetone:olive oil (by volume). Their immunized draining lymph node cells (I-LNC) were then transfered (5×10^7) to recipient mice intravenously. The ability of the I-LNC to reach the site of antigen and produce a DTH reaction was assayed by challenging the recipient mice 1 hr after I-LNC transfer with 0.02 ml of 0.5% OX painted on the ear. DTH was ascertained by measuring the thickness of the ears 24 hrs later with an engineers micrometer.
The ability of the transfered I-LNC to reach the ears was tested by labeling the I-LNC before transfer with radioactive ^51 Cr (10^7 cells/ml incubated with 0.1 mCi ^51 Cr sodium chromate and washed) and measuring the amount cpm reaching the ears at the time of DTH.

heparanase = test: Inhibition of T lymphocyte heparanase activity (degradation of 35S-labeled heparan sulfate of extracellular matrix); type: biochemical; conditions: medium of activated T lymphocytes, 35S-labeled extracellular matrix, various concentrations
Description: Heparanase activity was induced into the extracellular medium bathing activated T lymphocytes and tested by incubating the medium with extracellular matrix whose heparan sulfate was labeled with ^35 S as described (Naparstek, Y., Cohen, I. R., Fuks, Z. and I. Vlodavsky. Activated T lymphocytes produce a matrix-degrading heparan sulphate endoglycosidase. Nature 310:241 (1984)). Inhibition of heparanase activity was tested by adding various concentrations of heparin or modified heparins to the reaction mixture and measuring the effect on degradation of the labeled heparin-sulfate as described (Naparstek, Y., Cohen, I. R., Fuks, Z. and I. Vlodavsky.
Activated T lymphocytes produce a matrix-degrading heparan sulphate endoglycosidase, Nature 310:241 (1984)). Totally desulfated heparin and N-desulfated, N-acetylated heparin was prepared as described. (Ayotte, L., A. S. Perlin. NMR spectroscopic observations related to the function of sulfate groups in heparin. Calcium binding vs. biological activity. Carbohydrate Res. 145:267 (1986)).

adjuvant arthritis = test: Adjuvant arthritis induced with M. tuberculosis; type: in vivo, Lewis rats; conditions: for Adjuvant arthritis maximum clinical score: scale 0-16
lymphocytes = conditions: 17-35 mg/kg/rat; cited from earlier work
[1] = rat, in vivo, 10 mg/kg
[2] = 0.001 mg s.c. once daily for 5 days from day 9
[3] = 0.005 mg s.c. once daily for 5 days from day 9
[4] = 0.01 mg s.c. once daily for 5 days from day 9
[5] = 0.02 mg s.c. once daily for 5 days from day 9

Substance: heparin
- Accumulation of 51Cr I-LNC in OX challenged ears (cpm/ear, FIG. 6 right) (DTH reaction; 5 μg per injection): decreased cpm
- DTH ear swelling (FIG. 6 left) (DTH reaction; 5 μg per injection): decreased ear swelling
- Accumulation of 51Cr I-LNC in OX challenged ears (cpm/ear, FIG. 6 right) (DTH reaction; 20 μg per injection): did not inhibit
- DTH ear swelling (FIG. 6 left) (DTH reaction; 20 μg per injection): did not inhibit
- Inhibition of degradation of heparan sulfate by heparanase (heparanase): yes
- Adjuvant arthritis duration (adjuvant arthritis; [2]): 20 days
- Adjuvant arthritis maximum clinical score (adjuvant arthritis; [2]): 6
- Adjuvant arthritis duration (adjuvant arthritis; [3]): 16 days
- Adjuvant arthritis maximum clinical score (adjuvant arthritis; [3]): 4
- Adjuvant arthritis duration (adjuvant arthritis; [4]): 15 days
- Adjuvant arthritis maximum clinical score (adjuvant arthritis; [4]): 5
- Adjuvant arthritis duration (adjuvant arthritis; [5]): 8 days
- Adjuvant arthritis maximum clinical score (adjuvant arthritis; [5]): 2
- Adjuvant arthritis duration (adjuvant arthritis; 0.04 mg s.c. once daily for 5 days from day 9, dose 0: >20): > 20 days
- Adjuvant arthritis maximum clinical score (adjuvant arthritis; 0.04 mg s.c. once daily for 5 days from day 9, dose 0: 10): 10
- Inhibition of arthritis (adjuvant arthritis; rat, in vivo): yes
- Arthritis score (day 60) (adjuvant arthritis; rat, in vivo, sc): 0
- Emigration of lymphocytes from the circulation (lymphocytes): inhibit the emigration of lymphocytes from the circulation
- Anti-coagulant effect (prothrombin time) [1]: increase in the prothrombin time
